{"source": "paper PMC10841833", "about": "(Cancer research, 2023)", "molecular_target": "citron kinase (CIT/CRIK) (Homo sapiens, UniProt O14578)", "sequence (O14578 whole entry)": "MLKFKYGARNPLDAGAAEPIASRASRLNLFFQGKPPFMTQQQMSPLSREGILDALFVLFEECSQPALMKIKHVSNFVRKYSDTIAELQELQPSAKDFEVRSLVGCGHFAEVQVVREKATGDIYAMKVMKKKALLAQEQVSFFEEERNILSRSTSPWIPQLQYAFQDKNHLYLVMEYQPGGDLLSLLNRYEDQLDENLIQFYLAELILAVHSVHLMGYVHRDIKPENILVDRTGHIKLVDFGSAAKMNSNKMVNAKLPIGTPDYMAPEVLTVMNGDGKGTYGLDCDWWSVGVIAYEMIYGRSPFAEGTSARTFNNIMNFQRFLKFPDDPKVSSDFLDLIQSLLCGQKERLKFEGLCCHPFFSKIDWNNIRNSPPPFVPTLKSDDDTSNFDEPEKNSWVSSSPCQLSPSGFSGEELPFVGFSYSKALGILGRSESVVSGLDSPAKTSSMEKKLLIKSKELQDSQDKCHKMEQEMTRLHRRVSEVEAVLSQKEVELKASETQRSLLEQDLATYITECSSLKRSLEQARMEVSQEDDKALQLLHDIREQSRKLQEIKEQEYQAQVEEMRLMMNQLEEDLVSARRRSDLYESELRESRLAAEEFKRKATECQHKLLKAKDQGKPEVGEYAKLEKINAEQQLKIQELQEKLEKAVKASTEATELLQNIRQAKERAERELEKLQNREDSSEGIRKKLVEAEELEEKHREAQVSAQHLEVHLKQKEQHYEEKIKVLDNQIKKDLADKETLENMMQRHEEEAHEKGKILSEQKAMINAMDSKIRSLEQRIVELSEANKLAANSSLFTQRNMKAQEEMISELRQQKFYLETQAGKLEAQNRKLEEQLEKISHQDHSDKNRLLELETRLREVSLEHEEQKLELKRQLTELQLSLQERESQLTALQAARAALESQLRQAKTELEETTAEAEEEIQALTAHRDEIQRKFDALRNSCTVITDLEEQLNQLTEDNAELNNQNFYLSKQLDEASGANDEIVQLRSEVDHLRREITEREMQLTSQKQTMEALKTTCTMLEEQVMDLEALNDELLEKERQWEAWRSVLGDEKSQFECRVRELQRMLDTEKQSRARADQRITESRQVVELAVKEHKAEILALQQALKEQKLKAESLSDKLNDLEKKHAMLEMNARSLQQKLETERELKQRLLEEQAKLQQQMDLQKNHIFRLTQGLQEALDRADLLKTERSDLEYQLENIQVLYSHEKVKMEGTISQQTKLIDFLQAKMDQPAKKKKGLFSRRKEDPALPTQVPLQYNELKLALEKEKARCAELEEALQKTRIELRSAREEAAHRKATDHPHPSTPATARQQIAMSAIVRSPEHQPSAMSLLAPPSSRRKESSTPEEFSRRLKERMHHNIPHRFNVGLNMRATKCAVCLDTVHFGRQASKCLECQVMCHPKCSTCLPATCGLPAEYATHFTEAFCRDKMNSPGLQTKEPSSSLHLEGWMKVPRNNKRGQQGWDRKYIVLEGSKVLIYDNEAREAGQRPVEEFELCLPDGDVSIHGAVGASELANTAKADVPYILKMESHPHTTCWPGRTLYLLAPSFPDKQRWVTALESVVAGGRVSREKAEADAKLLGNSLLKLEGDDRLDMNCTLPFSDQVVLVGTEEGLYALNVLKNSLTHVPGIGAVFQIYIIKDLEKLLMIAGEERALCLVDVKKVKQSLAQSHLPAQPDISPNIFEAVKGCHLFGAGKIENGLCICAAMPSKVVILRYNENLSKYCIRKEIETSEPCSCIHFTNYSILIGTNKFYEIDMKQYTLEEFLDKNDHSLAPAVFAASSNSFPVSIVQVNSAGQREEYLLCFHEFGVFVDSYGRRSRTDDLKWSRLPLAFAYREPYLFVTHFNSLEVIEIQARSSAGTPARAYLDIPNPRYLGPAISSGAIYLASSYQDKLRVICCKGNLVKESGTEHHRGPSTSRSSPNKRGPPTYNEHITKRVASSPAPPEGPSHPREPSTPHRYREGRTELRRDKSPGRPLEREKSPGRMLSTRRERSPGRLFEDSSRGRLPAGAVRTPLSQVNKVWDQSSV", "test": "in vitro kinase assay", "format": "biochemical", "note": "pIC50: −log10 of the molar value."}
{"smiles": "CC(=O)c1cnc2ccc(-c3cc(Cl)c(O)c(Cl)c3)nc2c1N[C@H]1CC[C@H](CN(C)C)CC1", "note": "[OTS-167]", "values": [{"measurement": "pIC50", "value": "~8.00"}]}
